# Assay results reported in ChEMBL document CHEMBL1145653, “The alkaloids of Corydalis meifolia” (J Nat Prod, 1983).
# Legend:
# [1] = tested on: Ileum; experiment: Spasmolytic activity against guinea pig ileum assessed as inhibition of spasmogen-induced contraction at 10 ug; format: functional, Cavia porcellus
# [2] = tested on: Ileum; experiment: Spasmolytic activity against guinea pig ileum assessed as inhibition of spasmogen-induced contraction at 50 ug; format: functional, Cavia porcellus
SMILES,inhibition (INH) [1] [%],inhibition (INH) [2] [%]
COc1cc2c(cc1OC)-c1c(C)c3ccc4c(c3c[n+]1CC2)OCO4.[Cl-] [DEHYDROCAVIDINE],20,40
COc1cc2c(cc1OC)[C@H]1[C@@H](C)c3ccc4c(c3CN1CC2)OCO4 [CAVIDINE],84,100
COc1cc2c(cc1OC)[C@@H]([C@H]1OC(=O)c3c1ccc1c3OCO1)N(C)CC2 [CORLUMINE],0,50
COc1cc2c(cc1OC)[C@]1([C@H](O)c3ccc4c(c3[C@@H]1O)OCO4)N(C)CC2 [YEMHUSOMINE],17,52
